From patent publication US10081632B2, “Substituted tetrahydropyrido[3′,2′:4,5]pyrrolo[1,2-α]pyrazine-2-carboxamides as RSK inhibitors” (Phoenix Molecular Designs, priority 2016, dated 2018)
Entries after “also recorded” stand apart in the source; their conditions may differ.

How the values were obtained:
RSK2 = RSK2 (Homo sapiens (Human), UniProt P51812); assay: Radioisotope kinase assay (SignalChem), RSK2; assay type: biochemical; conditions: 33P-ATP, 30° C., 15 minutes
Protocol: The assay conditions for the RSK2 kinase target were optimized to yield acceptable enzymatic activity. In addition, the assays were optimized to give high signal-to-noise ratio.
Radioisotope assays (SignalChem) were performed for the evaluation of the kinase target profiling and all assays were performed in a designated radioactive working area. The kinase targets were RSK1, RSK2, RSK3, RSK4 and MK2.
The assay was initiated by the addition of ^33P-ATP and the reaction mixture incubated at 30° C. for 15 minutes. After the incubation period, the assay was terminated by spotting 10 μL of the reaction mixture onto Multiscreen phosphocellulose P81 plate. The Multiscreen phosphocellulose P81 plate was washed 3 times for approximately 15 minutes each in a 1% phosphoric acid solution. The radioactivity on the P81 plate was counted in the presence of scintillation fluid in a Trilux scintillation counter.
Blank controls were set up for each target kinase which included all the assay components except the addition of the appropriate substrate (which was replaced with equal volume of assay dilution buffer). The corrected activity for each target kinase was determined by removing the blank control value.

MDA-MB-231 cells [1] = assay: Monolayer growth inhibition, crystal violet assay; assay type: cell-based; conditions: Homo sapiens; MDA-MB-231 (TNBC), 5 days, single dose on day 1
Source text: (§1) In all instances a single dose was given on day 1 of the experiment.

PC3 cells [2] = assay: Monolayer growth inhibition, crystal violet assay; assay type: cell-based; conditions: Homo sapiens, PC-3; PC3 (Prostate), 5 days, single dose on day 1
Source text: as §1

SUM149-PTXR cells [3] = assay: Monolayer growth inhibition, crystal violet assay; assay type: cell-based; conditions: Homo sapiens; SUM149-PTXR (TNBC, BRCA Mutant), 5 days, single dose on day 1
Source text: as §1

HCC1143 cells [4] = assay: Monolayer growth inhibition, crystal violet assay; assay type: cell-based; conditions: Homo sapiens; HCC1143 (TNBC), 5 days, single dose on day 1
Source text: as §1

MDA-MB-435 cells [5] = assay: Monolayer growth inhibition, crystal violet assay; assay type: cell-based; conditions: Homo sapiens; MDA-MB-435 (Melanoma), 5 days, single dose on day 1
Source text: as §1

4T1 cells [6] = assay: Monolayer growth inhibition, crystal violet assay; assay type: cell-based; conditions: Mus musculus; 4T1 (TNBC), 5 days, single dose on day 1
Source text: as §1

SUM149 cells [7] = assay: Monolayer growth inhibition, crystal violet assay; assay type: cell-based; conditions: Homo sapiens; SUM149 (TNBC, BRCA Mutant), 5 days, single dose on day 1
Source text: as §1

MDA-MB-468 cells [8] = assay: Monolayer growth inhibition, crystal violet assay; assay type: cell-based; conditions: Homo sapiens; MDA-MB-468 (TNBC), 5 days, single dose on day 1
Source text: (§2) In all instances a single dose was given on day 1 of the experiment. […] Complete (100%) growth suppression was achievable with several of the compounds in multiple different cell lines.

T47D cells [9] = assay: Monolayer growth inhibition, crystal violet assay; assay type: cell-based; conditions: Homo sapiens; T47D (ER/PR), 5 days, single dose on day 1
Source text: as §2

JIMT-1 cells [10] = assay: Monolayer growth inhibition, crystal violet assay; assay type: cell-based; conditions: Homo sapiens; JIMT-1 (HER2), 5 days, single dose on day 1
Source text: as §2

HCC1937 cells [11] = assay: Monolayer growth inhibition, crystal violet assay; assay type: cell-based; conditions: Homo sapiens; HCC1937 (TNBC, BRCA Mutant), 5 days, single dose on day 1
Source text: as §2

T47D cells [12] = assay: Monolayer growth inhibition, Alamar blue assay; assay type: cell-based, Human; conditions: Homo sapiens; T47D (ER/PR), 5 days, single dose on day 1
Source text: as §1

SUM149-PTXR cells [13] = assay: Monolayer growth inhibition, Alamar blue assay; assay type: cell-based, Human; conditions: Homo sapiens; SUM149-PTXR (TNBC, BRCA Mutant), 5 days, single dose on day 1
Source text: as §1

MDA-MB-231 cells [14] = assay: Monolayer growth inhibition, Alamar blue assay; assay type: cell-based; conditions: Homo sapiens; MDA-MB-231 (TNBC), 5 days, single dose on day 1
Source text: as §1

MDA-MB-468 cells [15] = assay: Monolayer growth inhibition, Alamar blue assay; assay type: cell-based; conditions: Homo sapiens; MDA-MB-468 (TNBC), 5 days, single dose on day 1
Source text: as §1

PC3 cells [16] = assay: Monolayer growth inhibition, Alamar blue assay; assay type: cell-based; conditions: Homo sapiens, PC-3; PC3 (Prostate), 5 days, single dose on day 1
Source text: as §1

HCC1143 cells [17] = assay: Monolayer growth inhibition, Alamar blue assay; assay type: cell-based; conditions: Homo sapiens; HCC1143 (TNBC), 5 days, single dose on day 1
Source text: as §1

MDA-MB-435 cells [18] = assay: Monolayer growth inhibition, Alamar blue assay; assay type: cell-based; conditions: Homo sapiens; MDA-MB-435 (Melanoma), 5 days, single dose on day 1
Source text: as §1

4T1 cells [19] = assay: Monolayer growth inhibition, Alamar blue assay; assay type: cell-based; conditions: Mus musculus; 4T1 (TNBC), 5 days, single dose on day 1
Source text: as §1

JIMT-1 cells [20] = assay: Monolayer growth inhibition, Alamar blue assay; assay type: cell-based; conditions: Homo sapiens; JIMT-1 (HER2), 5 days, single dose on day 1
Source text: as §1

HCC1937 cells [21] = assay: Monolayer growth inhibition, Alamar blue assay; assay type: cell-based; conditions: Homo sapiens; HCC1937 (TNBC, BRCA Mutant), 5 days, single dose on day 1
Source text: as §1

SUM149 cells [22] = assay: Monolayer growth inhibition, Alamar blue assay; assay type: cell-based; conditions: Homo sapiens; SUM149 (TNBC, BRCA Mutant), 5 days, single dose on day 1
Source text: as §1

MDA-MB-231 cells [23] = assay: Soft agar growth inhibition assay; assay type: cell-based; conditions: Homo sapiens, MDA-MB-231; growth in soft agar (SA); read-out: MDA-MB-231 IC50 (SA)
[24] = Solubility assessment, 20 mg/ml solution; assay type: physicochemical; conditions: for Solubility, 20 mg/ml Solution: 100 mM in DMSO diluted in DMEM growth media to 20 mg/ml
Protocol: Solubility is an important property for therapeutic drug candidates. Poor solubility can lead to low bioavailability resulting in suboptimal drug delivery. It can also prevent the evaluation of test agents in animals because the concentration(s) needed to achieve the desired effect cannot be achieved to poor solubility. For solubility assessments, small molecules targeting RSK were compared. For these assessments, 100 mM solutions of the compounds dissolved in DMSO were diluted in DMEM growth media (Life Technologies) supplemented with fetal bovine serum (FBS, Life Technologies) and 100 units/ml penicillin and 100 units/ml streptomycin (Life Technologies) to make 20 mg/ml solutions. Once diluted, the solutions were vortexed and examined for the formation of precipitates. […] For Compound 26, a 100 mM solution of the compound dissolved in DMSO was diluted in phosphate buffered saline (Life Technologies) to make a 20 mg/ml solution. The stock of […] was chosen because this is the upper end of what would be required to dose mice for a range of studies including MTD, PK, PD and efficacy. The pH of this solution was determined to be 2, as previously described. […] At high concentrations some RSK inhibitors were highly soluble while others were not. Compound 0 is (R)—N-(1-benzyl-1H-pyrazol-4-yl)-9-methyl-6-oxo-6,7,8,9-tetrahydropyrido[3′,2′:4,5]pyrrolo[1,2-a]pyrazine-2-carboxamide. Compound 0 was not soluble, whereas Compounds 18, 20, 21, 25 and 26 were soluble under the same conditions (Table 5).

CD34+ cells = assay: Colony forming unit hematopoietic stem cell assay; assay type: cell-based, human
Protocol: The hematopoietic colony forming cell assay was conducted based on a protocol outlined by StemCell Technologies. […] Following the addition of CD34^+ cells isolated from human cord blood or peripheral blood (StemCell Technologies) at a final concentration of 5×10^2 cells per dish, the tubes were vortexed and allowed to stand for 5 minutes at room temperature. Next, the MethoCult mixtures were dispensed into 35 mm dishes (Corning Incorporated) through blunt end needles (StemCell Technologies) and 5 ml syringes (BD Biosciences) at a volume of 1.1 ml per dish. The medium was evenly distributed across the surface of each dish by gentle tilting and rotation. The dishes were then placed in a 100 mm culture dish (Grenier Bio-One) containing additional 35 mm dishes with sterile water to maintain humidity. […] The number of myeloid and erythroid derived colonies in both the treated and control dishes were counted and compared.

RSK2, sequence (P51812 whole entry): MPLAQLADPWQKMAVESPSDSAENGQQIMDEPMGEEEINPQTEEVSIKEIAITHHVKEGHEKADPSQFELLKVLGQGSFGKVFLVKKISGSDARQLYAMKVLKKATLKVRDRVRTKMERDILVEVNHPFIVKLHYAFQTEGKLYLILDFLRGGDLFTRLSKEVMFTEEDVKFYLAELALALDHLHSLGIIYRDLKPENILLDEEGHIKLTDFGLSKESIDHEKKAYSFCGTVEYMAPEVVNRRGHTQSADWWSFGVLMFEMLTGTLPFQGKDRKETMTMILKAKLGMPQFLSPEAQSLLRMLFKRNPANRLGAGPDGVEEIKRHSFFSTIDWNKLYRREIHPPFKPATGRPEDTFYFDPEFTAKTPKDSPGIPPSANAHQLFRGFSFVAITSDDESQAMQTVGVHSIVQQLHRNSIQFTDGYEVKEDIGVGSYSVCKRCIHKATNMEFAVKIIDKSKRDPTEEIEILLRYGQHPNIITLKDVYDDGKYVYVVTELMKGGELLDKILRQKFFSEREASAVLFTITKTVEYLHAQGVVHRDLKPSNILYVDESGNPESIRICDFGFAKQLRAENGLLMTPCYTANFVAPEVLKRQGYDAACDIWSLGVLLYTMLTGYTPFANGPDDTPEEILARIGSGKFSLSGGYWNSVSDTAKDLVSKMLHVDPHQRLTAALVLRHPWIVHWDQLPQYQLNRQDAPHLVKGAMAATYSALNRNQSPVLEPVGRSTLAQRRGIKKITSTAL

CN1CCc2[nH]c3ccc(NC(=O)c4cnn(Cc5ccccc5)c4)cc3c2C1 [Compound 14, 1-benzyl-N-(2-methyl-2,3,4,5-tetrahydro-1H-pyrido[4,3-b]indol-8-yl)-1H-pyrazole-4-carboxamide]
IC50 (RSK2): > 1 µM

C[C@@H]1CNC(=O)c2cc3ccc(NC(=O)c4cnn(Cc5ccccc5)c4)cc3n21 [Compound 11, (R)-1-benzyl-N-(4-methyl-1-oxo-1,2,3,4-tetrahydropyrazino[1,2-a]indol-7-yl)-1H-pyrazole-4-carboxamide]
IC50 (MDA-MB-231 cells [1]): 45 ± 8.7 µM | IC50 (PC3 cells [2]): 45.6 ± 4.8 µM | IC50 (SUM149-PTXR cells [3]): 44.6 ± 3.9 µM | IC50 (HCC1143 cells [4]): > 50 µM | IC50 (MDA-MB-435 cells [5]): 17.9 ± 7.3 µM | IC50 (4T1 cells [6]): 39.5 ± 9.4 µM | IC50 (SUM149 cells [7]): 33.6 ± 14.5 µM | IC50 (MDA-MB-468 cells [8]): 37.3 ± 2.3 µM | IC50 (T47D cells [9]): 30.1 ± 3.3 µM | IC50 (JIMT-1 cells [10]): > 50 µM | IC50 (HCC1937 cells [11]): > 50 µM | IC50 (T47D cells [12]): 48.1 ± 3.3 µM | IC50 (SUM149-PTXR cells [13]): 36.4 ± 11.9 µM | IC50 (MDA-MB-231 cells [14]): > 50 µM | IC50 (MDA-MB-468 cells [15]): > 50 µM | IC50 (PC3 cells [16]): 44.9 ± 8.8 µM | IC50 (HCC1143 cells [17]): > 50 µM | IC50 (MDA-MB-435 cells [18]): 24.6 ± 10.3 µM | IC50 (4T1 cells [19]): 48.5 ± 2.6 µM | IC50 (JIMT-1 cells [20]): > 50 µM | IC50 (HCC1937 cells [21]): > 50 µM | IC50 (SUM149 cells [22]): 36 ± 12.8 µM

C[C@@H]1CNC(=O)c2cc3ccc(C(=O)Nc4cnn(Cc5ccccc5)c4)nc3n21 [Compound 0, (R)—N-(1-benzyl-1H-pyrazol-4-yl)-9-methyl-6-oxo-6,7,8,9-tetrahydropyrido[3′,2′:4,5]pyrrolo[1,2-a]pyrazine-2-carboxamide, reference compound]
IC50 (MDA-MB-231 cells [23]): 0.2 µM | Solubility, 20 mg/ml Solution [24]: not soluble; also recorded: poor or nonexistent solubility; also recorded: Precipitate | IC50 (CD34+ cells; Homo sapiens, Hematopoietic stem cell, CD34+ cells from peripheral blood, read-out: CD34+ (PB) IC50): 10 µM | Therapeutic Window (CD34+ cells; ratio IC50 against CD34+ cells and MDA-MB-231 cells (SA)): 50X

O=C(Nc1ccc2occ(CN3CCOCC3)c2c1)c1cnn(Cc2ccccc2)c1 [Compound 8, 1-benzyl-N-(3-(morpholinomethyl)benzofuran-5-yl)-1H-pyrazole-4-carboxamide]
IC50 (RSK2): > 10 µM

C[C@@H]1CNC(=O)c2cc3ccc(C(=O)Nc4cnn(CC5CCN(C)CC5)c4)nc3n21 [Compound 20, (R)-9-methyl-N-(1-((1-methylpiperidin-4-yl)methyl)-1H-pyrazol-4-yl)-6-oxo-6,7,8,9-tetrahydropyrido[3′,2′:4,5]pyrrolo[1,2-a]pyrazine-2-carboxamide]
Solubility, 20 mg/ml Solution [24]: Soluble | pH of 20 mg/ml solution ([24]; DMSO stock diluted in DMEM, pH test strips): 8

CN1CCN(Cc2c[nH]c3cc(NC(=O)c4cnn(Cc5ccccc5)c4)ccc23)CC1 [Compound 4, 1-Benzyl-N-(3-((4-methylpiperazin-1-yl)methyl)-1H-indol-6-yl)-1H-pyrazole-4-carboxamide]
IC50 (RSK2): > 10 µM

O=C(Nc1ccc2c(CN3CCOCC3)c[nH]c2c1)c1cnn(Cc2ccccc2)c1 [Compound 2, 1-Benzyl-N-(3-(morpholinomethyl)-1H-indol-6-yl)-1H-pyrazole-4-carboxamide]
IC50 (RSK2): > 10 µM

O=C(Nc1ccc2c(CN3CCOCC3)coc2c1)c1cnn(Cc2ccccc2)c1 [Compound 7, 1-benzyl-N-(3-(morpholinomethyl)benzofuran-6-yl)-1H-pyrazole-4-carboxamide]
IC50 (RSK2): > 10 µM

O=C(Nc1ccc2scc(CN3CCNCC3)c2c1)c1cnn(Cc2ccccc2)c1 [Compound 6, 1-Benzyl-N-(3-(piperazin-1-ylmethyl)benzo[b]thiophen-5-yl)-1H-pyrazole-4-carboxamide]
IC50 (RSK2): > 10 µM

O=C(Nc1ccc2scc(CN3CCOCC3)c2c1)c1cnn(Cc2ccccc2)c1 [Compound 5, 1-Benzyl-N-(3-(morpholinomethyl)benzo[b]thiophen-5-yl)-1H-pyrazole-4-carboxamide]
IC50 (RSK2): > 10 µM

O=C(Nc1ccc2c(CN3CCNCC3)coc2c1)c1cnn(Cc2ccccc2)c1 [Compound 10, 1-benzyl-N-(3-(piperazin-1-ylmethyl)benzofuran-6-yl)-1H-pyrazole-4-carboxamide]
IC50 (RSK2): > 1 µM

O=C(Nc1ccc2occ(CN3CCNCC3)c2c1)c1cnn(Cc2ccccc2)c1 [Compound 9, 1-benzyl-N-(3-(piperazin-1-ylmethyl)benzofuran-5-yl)-1H-pyrazole-4-carboxamide]
IC50 (RSK2): > 10 µM

CN1CCN(Cc2c[nH]c3ccc(NC(=O)c4cnn(Cc5ccccc5)c4)cc23)CC1 [Compound 3, 1-Benzyl-N-(3-((4-methylpiperazin-1-yl)methyl)-1H-indol-5-yl)-1H-pyrazole-4-carboxamide]
IC50 (RSK2): > 10 µM

CN1CCc2oc3ccc(NC(=O)c4cnn(Cc5ccccc5)c4)cc3c2C1 [Compound 13, 1-benzyl-N-(2-methyl-1,2,3,4-tetrahydrobenzofuro[3,2-c]pyridin-8-yl)-1H-pyrazole-4-carboxamide]
IC50 (RSK2): > 1 µM

O=C(Nc1ccc2[nH]cc(CN3CCOCC3)c2c1)c1cnn(Cc2ccccc2)c1 [Compound 1, 1-Benzyl-N-(3-(morpholinomethyl)-1H-indol-5-yl)-1H-pyrazole-4-carboxamide]
IC50 (RSK2): > 10 µM

O=C(Nc1ccc2cc3n(c2c1)CCNC3=O)c1cnn(Cc2ccccc2)c1 [Compound 12, 1-benzyl-N-(1-oxo-1,2,3,4-tetrahydropyrazino[1,2-a]indol-7-yl)-1H-pyrazole-4-carboxamide]
IC50 (RSK2): > 1 µM
